# The source made the active and inactive calls.
# What was measured:
# cells = type: functional
# [1] = target: T1, Carboxy-terminal domain RNA polymerase II polypeptide A small phosphatase 1 (Homo sapiens, UniProt Q9GZU7); assay: inhibitors of CTDSP1, concentration-response testing, biochemical assay, absorbance-based, actives from ultra-high-throughput screening (AID 540297); type: functional
# T1 sequence (Q9GZU7 whole entry): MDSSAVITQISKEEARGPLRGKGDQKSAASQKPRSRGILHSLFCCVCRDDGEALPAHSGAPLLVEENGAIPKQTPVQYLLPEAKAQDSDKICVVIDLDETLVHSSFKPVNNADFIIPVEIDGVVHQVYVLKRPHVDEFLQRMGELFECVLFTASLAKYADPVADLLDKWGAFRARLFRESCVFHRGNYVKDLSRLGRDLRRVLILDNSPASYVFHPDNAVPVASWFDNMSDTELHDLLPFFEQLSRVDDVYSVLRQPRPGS
# [2] = target: T2, Heat shock factor protein 1 (Mus musculus, UniProt P38532); assay: HSF1 potentiators in luciferase reporter cells, confirmation, cell-based, NIH3T3, luminescence, dose retest (AID 435004); type: functional;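 further: stress induced by proteasome inhibitor MG132 added 30 min after compound; luciferase reporter driven by HSF1 response element in NIH3T3 cells; actives raise luminescence as potentiators of the MG132 stress response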
# T2 sequence (P38532 whole entry): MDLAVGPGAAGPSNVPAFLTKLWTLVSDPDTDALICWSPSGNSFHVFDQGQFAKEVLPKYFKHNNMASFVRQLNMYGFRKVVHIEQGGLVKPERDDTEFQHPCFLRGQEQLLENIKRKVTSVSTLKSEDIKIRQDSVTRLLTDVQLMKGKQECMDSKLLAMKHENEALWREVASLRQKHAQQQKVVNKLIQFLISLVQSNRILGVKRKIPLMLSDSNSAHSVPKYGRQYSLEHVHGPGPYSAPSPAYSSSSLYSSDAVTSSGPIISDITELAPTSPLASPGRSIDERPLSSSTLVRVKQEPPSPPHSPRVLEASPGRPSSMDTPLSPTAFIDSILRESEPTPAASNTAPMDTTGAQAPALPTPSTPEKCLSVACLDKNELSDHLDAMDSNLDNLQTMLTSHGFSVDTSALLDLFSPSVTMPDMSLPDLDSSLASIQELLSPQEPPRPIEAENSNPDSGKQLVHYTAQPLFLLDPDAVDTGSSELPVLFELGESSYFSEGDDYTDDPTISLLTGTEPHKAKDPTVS
# [3] = target: FAD-linked sulfhydryl oxidase ALR (Homo sapiens, UniProt P55789); assay: inhibitors of human ALR sulfhydryl oxidase, dose response, biochemical, H2O2 detection, luminescence, cherry-pick (AID 493248)
# Sequence of FAD-linked sulfhydryl oxidase ALR (P55789 whole entry): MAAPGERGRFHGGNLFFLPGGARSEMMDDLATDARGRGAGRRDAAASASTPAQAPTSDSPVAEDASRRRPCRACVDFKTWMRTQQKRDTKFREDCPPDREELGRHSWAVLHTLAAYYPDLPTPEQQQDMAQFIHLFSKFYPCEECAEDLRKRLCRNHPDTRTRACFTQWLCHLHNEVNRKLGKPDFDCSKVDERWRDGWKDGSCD
# [4] = target: Glyceraldehyde-3-phosphate dehydrogenase (Homo sapiens, UniProt P04406)
# Sequence of Glyceraldehyde-3-phosphate dehydrogenase (P04406 whole entry): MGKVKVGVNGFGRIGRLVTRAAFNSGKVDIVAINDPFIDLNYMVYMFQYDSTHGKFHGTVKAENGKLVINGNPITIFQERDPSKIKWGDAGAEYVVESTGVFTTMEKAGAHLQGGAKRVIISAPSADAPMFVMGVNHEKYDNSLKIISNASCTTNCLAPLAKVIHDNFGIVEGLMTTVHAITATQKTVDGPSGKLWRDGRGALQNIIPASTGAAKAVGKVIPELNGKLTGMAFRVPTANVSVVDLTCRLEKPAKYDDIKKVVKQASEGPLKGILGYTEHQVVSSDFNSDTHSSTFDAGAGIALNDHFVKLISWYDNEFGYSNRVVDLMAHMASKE
# [5] = Shn3 3'UTR reporter inhibitors, dose response, cell-based, Clone20 osteoblasts, firefly luciferase, cherry-picked (AID 624132); type: functional;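 further: firefly luciferase luminescence from reporter carrying the Shn3 3'UTR in osteoblasts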
# [6] = Luminescence Cell-Based Dose Confirmation HTS to Identify Activators of 5'UTR Stem-Loop Driven Alpha-Synuclein mRNA Translation in H4 Neuroglioblastoma Cells. [Related pubchem assays: 1829 (Project Summary), 1814 (Primary HTS)]; type: functional
# H4 = assay: Luminescence Cell-Based Dose Response HTS to Identify Activators of 5'UTR Stem-Loop Driven Prion Protein mRNA Translation in H4 Neuroglioblastoma Cells. [Related pubchem assays: 1829 (Project Summary), 1814 (Primary HTS)]; type: functional; details: Homo sapiens
# [7] = Luminescence Cell-Based Dose Response HTS to Identify Activators of Luciferase Translation or Activity in H4 […] Cells. [Related pubchem assays: 1829 (Project Summary), 1814 (Primary HTS)]; type: functional
# [8] = growth suppression of PTEN-null colon cells, dose response, cell-based, HCT116 PTEN knockout (AID 1047); type: functional;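 further: HCT116 colon tumor cells with PTEN knocked out; cells exposed to compound for 60 hours before readout; potency for loss of cell viability measured by luminescence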
# [9] = growth suppression of beta-catenin-knockout colon cells, dose response, cell-based, HCT116, human colon tumor (AID 1045); type: functional;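 further: HCT116 colon tumor cells with beta catenin knocked out; cells exposed to compound for 60 hours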
# [10] = microbe, parasite or virus in culture; type: functional; details: Mycobacterium tuberculosis
# Cytochrome P450 1A2 = target: T3, Cytochrome P450 1A2 (Homo sapiens, UniProt P05177);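 further: PubChem cytochrome P450 panel assay, CYP1A2 panel member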
# T3 sequence (P05177 whole entry): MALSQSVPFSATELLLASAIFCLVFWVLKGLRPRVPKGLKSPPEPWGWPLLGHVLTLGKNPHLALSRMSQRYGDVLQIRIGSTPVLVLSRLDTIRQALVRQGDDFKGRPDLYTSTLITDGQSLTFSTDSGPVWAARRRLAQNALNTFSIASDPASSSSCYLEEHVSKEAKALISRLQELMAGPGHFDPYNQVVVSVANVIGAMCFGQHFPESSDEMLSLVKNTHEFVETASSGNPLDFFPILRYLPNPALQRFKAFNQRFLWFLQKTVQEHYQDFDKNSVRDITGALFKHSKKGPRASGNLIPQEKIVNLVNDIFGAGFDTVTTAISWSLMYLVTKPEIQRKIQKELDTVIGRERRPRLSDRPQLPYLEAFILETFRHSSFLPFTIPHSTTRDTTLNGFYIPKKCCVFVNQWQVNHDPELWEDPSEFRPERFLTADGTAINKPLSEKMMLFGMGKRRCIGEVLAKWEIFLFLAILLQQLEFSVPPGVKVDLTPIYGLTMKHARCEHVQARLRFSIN
# Protein RecA = target: T4, Protein RecA (Mycobacterium tuberculosis, UniProt P9WHJ3); assay: Fluorescence Cell-Free Homogeneous Dose Retest to Identify Inhibitors of RecA-Intein Splicing Activity. [Related pubchem assays (depositor defined):AID2097, AID2223, AID489010, AID492950]; type: functional
# T4 sequence (P9WHJ3 whole entry): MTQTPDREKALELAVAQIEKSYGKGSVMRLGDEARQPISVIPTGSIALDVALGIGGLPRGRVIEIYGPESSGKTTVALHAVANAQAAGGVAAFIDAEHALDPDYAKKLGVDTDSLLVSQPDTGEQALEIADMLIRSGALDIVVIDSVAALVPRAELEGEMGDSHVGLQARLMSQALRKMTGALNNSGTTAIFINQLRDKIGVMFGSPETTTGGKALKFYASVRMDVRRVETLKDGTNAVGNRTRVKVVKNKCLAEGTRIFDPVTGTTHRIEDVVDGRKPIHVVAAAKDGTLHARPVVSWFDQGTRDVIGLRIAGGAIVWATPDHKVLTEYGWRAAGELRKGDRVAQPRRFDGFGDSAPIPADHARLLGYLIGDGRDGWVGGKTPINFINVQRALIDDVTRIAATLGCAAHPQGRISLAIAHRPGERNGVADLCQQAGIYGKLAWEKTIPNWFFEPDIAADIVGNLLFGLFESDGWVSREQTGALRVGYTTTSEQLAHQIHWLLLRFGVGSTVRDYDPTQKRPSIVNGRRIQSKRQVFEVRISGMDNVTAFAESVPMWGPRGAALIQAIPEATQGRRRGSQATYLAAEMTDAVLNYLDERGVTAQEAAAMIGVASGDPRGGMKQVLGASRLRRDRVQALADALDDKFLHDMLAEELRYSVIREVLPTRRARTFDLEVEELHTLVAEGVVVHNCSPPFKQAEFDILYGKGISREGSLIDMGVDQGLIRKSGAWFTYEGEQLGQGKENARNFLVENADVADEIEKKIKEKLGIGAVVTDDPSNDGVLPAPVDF
# [11] = target: T5, Replicative DNA helicase DnaB (Mycobacterium tuberculosis, UniProt P9WMR3); assay: DnaB intein splicing inhibitors, dose response, biochemical, cell-free fluorescence (AID 449749); type: functional
# T5 sequence (P9WMR3 whole entry): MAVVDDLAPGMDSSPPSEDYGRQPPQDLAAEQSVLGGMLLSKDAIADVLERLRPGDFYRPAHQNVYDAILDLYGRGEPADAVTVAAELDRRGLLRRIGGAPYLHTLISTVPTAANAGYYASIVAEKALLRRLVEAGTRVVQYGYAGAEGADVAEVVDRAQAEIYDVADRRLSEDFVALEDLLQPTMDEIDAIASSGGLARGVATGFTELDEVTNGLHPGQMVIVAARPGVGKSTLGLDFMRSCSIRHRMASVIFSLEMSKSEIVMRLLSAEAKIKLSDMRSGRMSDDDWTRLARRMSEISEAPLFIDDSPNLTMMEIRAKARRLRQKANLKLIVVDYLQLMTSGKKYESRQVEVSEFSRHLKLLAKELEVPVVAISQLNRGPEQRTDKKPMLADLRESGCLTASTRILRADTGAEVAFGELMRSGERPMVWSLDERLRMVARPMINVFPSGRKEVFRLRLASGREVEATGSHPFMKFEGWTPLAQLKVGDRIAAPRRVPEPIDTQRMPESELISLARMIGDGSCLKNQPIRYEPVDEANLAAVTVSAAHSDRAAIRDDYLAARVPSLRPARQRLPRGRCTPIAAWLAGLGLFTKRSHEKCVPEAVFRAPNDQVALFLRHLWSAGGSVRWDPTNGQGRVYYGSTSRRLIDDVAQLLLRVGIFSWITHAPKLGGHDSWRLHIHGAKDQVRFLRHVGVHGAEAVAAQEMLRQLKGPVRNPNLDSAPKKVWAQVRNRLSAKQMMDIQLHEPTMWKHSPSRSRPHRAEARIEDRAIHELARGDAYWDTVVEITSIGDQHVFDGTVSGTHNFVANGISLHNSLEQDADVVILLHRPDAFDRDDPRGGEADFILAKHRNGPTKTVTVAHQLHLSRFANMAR
structure (smiles),measurement,setting,value
CCOC(=O)c1cc(-c2c(Cl)cccc2Cl)no1,IC50,cells,23 µM (active)
Cc1ncc([N+](=O)[O-])n1CCOC(=O)c1cc(Cl)cc(Cl)c1N,IC50,[1],6.77 µM (active)
same,EC50,[2],> 260 µM (inactive)
O=C(NNCc1ccc(O)cc1)c1ccccc1Cl,AC50,[3],0.695 µM (active)
O=C1C(Cl)=C(N2CCN(CCOCCO)CC2)C(=O)N1c1ccc(C(F)(F)F)cc1,IC50,[4],> 50 µM (inconclusive)
O=[N+]([O-])c1c(O)oc2ccccc2/c1=N\c1ccccc1O,IC50,cells,7.4 µM (active)
COC(=O)c1ccccc1N=C(S)N(Cc1ccc2c(c1)OCO2)Cc1cc2cc(OC)ccc2nc1O,AC50,[5],10.4 µM (active)
COc1ccc(-c2nc3c(n2O)CCc2c-3no[n+]2[O-])cc1,EC50,[6],> 120 µM (not active)
same,EC50,H4,15 µM (active)
same,EC50,[7],22.2 µM (active)
O=C(N/N=C/c1ccc(Cl)cc1)c1cc2c(s1)-c1ccccc1CC2,EC50,[8],9.47 µM (active)
same,IC50,[1],20 µM (active)
same,EC50,[9],10.5 µM (active)
CN1CCN(C2=C(Cl)C(=O)N(c3ccc(C(F)(F)F)cc3)C2=O)CC1,IC50,[4],> 50 µM (inconclusive)
CC(OC(=O)c1ccc2c(=O)n3c(nc2c1)CCCCC3)C(=O)Nc1ccc(Cl)cn1 (stereo unspecified),IC50,cells,20.3 µM (active)
COc1cccc(NCc2cc(=O)oc3cc(-c4ccccc4)c(O)cc23)c1,EC50,[6],21.8 µM (active)
same,EC50,H4,20 µM (active)
same,EC50,[7],15.2 µM (active)
O=C1Nc2ccc(S(=O)(=O)NCc3ccco3)c3cccc1c23,IC50,[1],10.8 µM (active)
O=C(NNc1nc2ccccc2s1)c1ccccc1F,CC50,[10],> 40 µM (active)
same,AC50,[3],14.2 µM (active)
same,AC50,Cytochrome P450 1A2,14.1 µM (inconclusive)
CC1(C)c2[nH]c3ccccc3c2C[C@@H]2C(=O)N(Cc3ccccc3F)C(=O)N21,CC50,[10],> 40 µM (active)
O=S1(=O)N=C(N/N=C/C=C/c2ccccc2)c2ccccc21,IC50,cells,30.6 µM (active)
C=C(C)CSc1cc(C)c(C#N)c2nc3ccccc3n12,CC50,[10],10.1 µM (active)
CC1CCCC(C)N1c1nnc(N)s1 (stereo unspecified),AC50,[3],2.31 µM (active)
Cc1ccc(NC(=O)c2cnn(-c3ccccc3)c2C)c(C)c1,EC50,[6],0.463 µM (active)
same,EC50,H4,> 120 µM (not active)
same,EC50,[7],37.9 µM (active)
COc1ccc(N2C(=O)C(F)(F)C2c2cccc(F)c2)cc1 (stereo unspecified),IC50,cells,5.74 µM (active)
CCCc1cc(C(=O)N2CCCC(Nc3ccc(C)c(C)c3)C2)n(C)n1 (stereo unspecified),AC50,[3],3.84 µM (active)
CCOc1ccc(C(CC(=O)O)CC(=O)O)cc1,IC50,[4],> 100 µM (not active)
O=C1/C(=C\c2ccncc2)CCc2ccccc21,CC50,[10],> 40 µM (active)
O=C1C(Cl)=C(N2CCOCC2)C(=O)N1c1cccc(C(F)(F)F)c1,EC50,Protein RecA,1.64 µM (active)
same,IC50,[4],> 50 µM (inconclusive)
same,AC50,[11],1.16 µM (inconclusive)
COc1ccc(CCNC(=O)c2cc(-c3cc(C)ccc3O)n[nH]2)cc1OC,AC50,[3],85.6 µM (active)
N#Cc1ccc(-c2ccc(F)cc2)nc1Oc1ccc(Cl)c(Cl)c1,EC50,[8],7.18 µM (active)
same,EC50,[9],3.8 µM (active)
CCOC(=O)C1CCCc2c1[nH]c1c(C(N)=O)cccc21 (stereo unspecified),IC50,cells,5.22 µM (active)
O=c1cc(N2CCN(c3ccc(F)cc3)CC2)[nH]c(=O)n1C1CCCCC1,EC50,[6],> 120 µM (not active)
same,EC50,H4,26.6 µM (active)
same,EC50,[7],17.3 µM (inconclusive)
O=C(NNC(=O)c1ccc(-c2ccccc2)cc1)c1ccccc1,IC50,[1],11.2 µM (active)
Cc1cc(O)n2cc(-c3ccccc3)nc2n1,AC50,[3],13.9 µM (active)
O=S(=O)(Nc1ccc2c(c1)OCO2)c1ccc(F)c(F)c1,AC50,[3],5.12 µM (active)

# From ChEMBL document CHEMBL1201862, “PubChem BioAssay data set” (2004)
